From US20240116985A1, “STAPLED PEPTIDES AND METHODS THEREOF” (priority 2020, published 2024)
Non-standard residues stand in square brackets, D forms with d. Residues, ends and D or L forms follow the SMILES beside them. Bta = N[C@@H](Cc1csc2ccccc12)C(=O)O; tBuAla = CC(C)(C)C[C@H](N)C(=O)O; 3Thi = N[C@@H](Cc1ccsc1)C(=O)O; αMeP = C[C@@]1(C(=O)O)CCCN1; Aib = CC(C)(N)C(=O)O

target: T1, full-length beta-Catenin (Uniprot ID P35222) (Homo sapiens, UniProt P35222); assay: Fluorescence polarization IC50 (beta-catenin / 5FAM-TCF4 10-53 competition); format: binding; conditions: beta-Catenin FP IC50, fluorescence polarization
T1 construct: 10 nM full-length beta-Catenin (Uniprot ID P35222)
T1 sequence (P35222 1-781): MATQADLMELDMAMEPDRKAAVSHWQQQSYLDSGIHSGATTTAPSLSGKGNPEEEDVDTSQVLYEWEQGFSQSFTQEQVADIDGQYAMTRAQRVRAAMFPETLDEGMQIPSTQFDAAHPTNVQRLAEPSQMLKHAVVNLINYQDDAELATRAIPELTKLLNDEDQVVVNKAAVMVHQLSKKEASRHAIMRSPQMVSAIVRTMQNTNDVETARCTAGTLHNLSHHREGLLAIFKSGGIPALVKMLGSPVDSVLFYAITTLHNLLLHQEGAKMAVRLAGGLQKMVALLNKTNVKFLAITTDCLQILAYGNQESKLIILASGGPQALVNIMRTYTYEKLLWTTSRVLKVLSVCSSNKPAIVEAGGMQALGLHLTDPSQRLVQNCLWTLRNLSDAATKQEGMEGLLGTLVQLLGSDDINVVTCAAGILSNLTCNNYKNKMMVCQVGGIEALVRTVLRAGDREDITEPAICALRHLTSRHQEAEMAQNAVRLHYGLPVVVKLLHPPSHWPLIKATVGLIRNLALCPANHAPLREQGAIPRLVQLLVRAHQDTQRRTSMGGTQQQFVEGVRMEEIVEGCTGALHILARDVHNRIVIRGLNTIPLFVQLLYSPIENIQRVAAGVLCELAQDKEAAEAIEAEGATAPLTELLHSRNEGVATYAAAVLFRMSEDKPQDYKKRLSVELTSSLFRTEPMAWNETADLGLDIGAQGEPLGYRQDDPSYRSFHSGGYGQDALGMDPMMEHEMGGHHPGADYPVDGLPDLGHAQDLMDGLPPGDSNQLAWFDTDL

SMILES	IC50 [nM]
CC(=O)N1CCC[C@]12CC=CCCCC1(CCCC=CCCCOC(=O)N3CC[C@@](C(=O)N[C@@H](Cc4ccccc4Cl)C(=O)N[C@@H](Cc4csc5ccccc45)C(=O)N[C@@H](CC(C)C)C(N)=O)(C3)NC(=O)[C@H](CC(C)C)NC(=O)[C@H](Cc3ccccc3)NC(=O)[C@H](C)NC(=O)[C@H](C)NC(=O)[C@H](CC(=O)O)NC(=O)[C@H](CC(=O)O)NC1=O)NC(=O)[C@H]([C@@H](C)O)NC(=O)[C@H](CC(=O)O)NC2=O (stereo partly drawn) [I-1424, Ac-PL3-Asp-Thr-B5-Asp-Asp-Ala-Ala-Phe-Leu-PyrS2-2C1F-BztA-Leu-NH2]	235

same assay, conditions: fluorescence polarization; read-out: beta-Catenin FP IC50

SMILES	IC50 [nM]
CC(=O)N1CCC[C@]12CC=CCCCC1(CCCC=CCCCOC(=O)N3CC[C@@](C(=O)N[C@@H](Cc4ccccc4)C(=O)N[C@@H](Cc4csc5ccccc45)C(=O)N[C@@H](CCO)C(N)=O)(C3)NC(=O)[C@H](CC(N)=O)NC(=O)[C@H](Cc3cscn3)NC(=O)[C@H](C)NC(=O)[C@H](CCCCNC(C)C)NC(=O)[C@H](CCC(N)=O)NC(=O)[C@H](CC(=O)O)NC1=O)NC(=O)[C@H](CC1CCCCC1)NC(=O)[C@H](CC(N)=O)NC2=O (stereo partly drawn) [I-2072, Ac-PL3-Asn-Cha-B5-Asp-Gln-iPrLys-Ala-4Thz-Asn-PyrS2-Phe-BztA-Hse-NH2]	8260
CC(=O)N1CCC[C@@]1(C)C(=O)N[C@@H](CC(=O)O)C(=O)N[C@@H](CC(C)(C)C)C(=O)NC(C)(C)C(=O)N[C@@H](CC(=O)O)C(=O)N[C@@H](CC(=O)O)C(=O)N[C@@H](C)C(=O)N[C@@H](C)C(=O)N[C@@H](Cc1ccccc1)C(=O)N[C@@H](CCC(N)=O)C(=O)NC(C)(C)C(=O)N[C@@H](Cc1ccsc1)C(=O)N[C@@H](Cc1csc2ccccc12)C(=O)N[C@@H](Cc1c[nH]cn1)C(=O)N[C@@H](CCCCN)C(N)=O [I-2231, Ac-MePro-Asp-Npg-Aib-Asp-Asp-Ala-Ala-Phe-Gln-Aib-3thi-BztA-His-Lys-NH2] (Ac-[αMeP]D[tBuAla][Aib]DDAAFQ[Aib][3Thi][Bta]HK-NH2)	5190
CC(=O)N1CCC[C@]12CC=CCCCC1(CCCC=CCCCCC[C@@](C)(C(=O)N[C@@H](Cc3ccsc3)C(=O)N[C@@H](Cc3csc4ccccc34)C(=O)N[C@@H](CCC(N)=O)C(N)=O)NC(=O)[C@H](CC(N)=O)NC(=O)[C@H](Cc3ccccc3)NC(=O)[C@H](C)NC(=O)[C@H](C)NC(=O)[C@H](CC(=O)O)NC(=O)[C@H](CC(=O)O)NC1=O)NC(=O)[C@H](CC(C)(C)C)NC(=O)[C@H](CC(=O)O)NC2=O (stereo partly drawn) [I-1819, Ac-PL3-Asp-Npg-B5-Asp-Asp-Ala-Ala-Phe-Asn-S7-3Thi-BztA-Gln-NH2]	615
CC(=O)N1CCC[C@]12CC=CCCCC1(CCCC=CCCCOC(=O)N3CC[C@@](C(=O)N[C@@H](Cc4ccsc4)C(=O)N[C@@H](Cc4csc5ccccc45)C(=O)N[C@@H](CCC(N)=O)C(N)=O)(C3)NC(=O)[C@H](CC(N)=O)NC(=O)[C@H](Cc3ccccc3)NC(=O)[C@H](C)NC(=O)[C@H](C)NC(=O)[C@H](CCC(N)=O)NC(=O)[C@H](CCC(N)=O)NC1=O)NC(=O)[C@H](CC(C)(C)C)NC(=O)[C@H](CC(=O)O)NC2=O (stereo partly drawn) [I-1558, Ac-PL3-Asp-Npg-B5-Gln-Gln-Ala-Ala-Phe-Asn-PyrS2-3Thi-BztA-Gln-NH2]	678
CC(=O)N1CCC[C@]12CC=CCCCC1(CCCC=CCCCOC(=O)N3CC[C@@](C(=O)N[C@@H](Cc4ccccc4C)C(=O)N[C@@H](Cc4csc5ccccc45)C(=O)N[C@@H](CCC(N)=O)C(N)=O)(C3)NC(=O)[C@H](CC(N)=O)NC(=O)[C@H](Cc3ccccc3)NC(=O)[C@H](C)NC(=O)[C@H](C)NC(=O)[C@H]([C@@H](C)O)NC(=O)[C@H](CC(N)=O)NC1=O)NC(=O)[C@H](CC(C)(C)C)NC(=O)[C@H](CC(=O)O)NC2=O (stereo partly drawn) [I-1737, Ac-PL3-Asp-Npg-B5-Asn-Thr-Ala-Ala-Phe-Asn-PyrS2-2MeF-BztA-Gln-NH2]	518
CC(=O)N1CCC[C@]12CC=CCCCC1(CCCC=CCCCOC(=O)N3CC[C@@](C(=O)N[C@@H](Cc4ccccc4)C(=O)N[C@@H](Cc4csc5ccccc45)C(=O)N[C@@H](CC(=O)N4CCOCC4)C(N)=O)(C3)NC(=O)[C@H](CC(C)C)NC(=O)[C@H](Cc3ccccc3)NC(=O)[C@H](C)NC(=O)[C@H](CCCCNC(=O)C(F)(F)F)NC(=O)[C@H](CCC(N)=O)NC(=O)[C@H](CC(=O)O)NC1=O)NC(=O)[C@H](CC1CCCCC1)NC(=O)[C@H](CC(N)=O)NC2=O (stereo partly drawn) [I-2525, Ac-PL3-Asn-Cha-B5-Asp-Gln-[CF3CO]Lys-Ala-Phe-Leu-PyrS2-Phe-BztA-MorphAsn-NH2]	4290

Results, then the molecule that gave them:

IC50 [nM]	SMILES
475	CC(=O)N1CCC[C@]12CC=CCCCC1(CCCC=CCCCOC(=O)N3CC[C@@](C(=O)N[C@@H](Cc4ccsc4)C(=O)N[C@@H](Cc4csc5ccccc45)C(=O)N[C@H](C(N)=O)C(C)C)(C3)NC(=O)[C@H](CC(N)=O)NC(=O)[C@H](Cc3ccccc3)NC(=O)[C@H](C)NC(=O)C(C)(C)NC(=O)[C@H]([C@@H](C)O)NC(=O)[C@H](CC(N)=O)NC1=O)NC(=O)[C@H](CC(C)(C)C)NC(=O)[C@H](CC(=O)O)NC2=O (stereo partly drawn) [I-2480, Ac-PL3-Asp-Npg-B5-Asn-Thr-Aib-Ala-Phe-Asn-PyrS2-3Thi-BztA-Val-NH2]
235	CC(=O)N1CCC[C@]12CCCCCCC1(CCCCCCCCOC(=O)N3CC[C@@](C(=O)N[C@@H](Cc4ccsc4)C(=O)N[C@@H](Cc4csc5ccccc45)C(=O)N[C@H](C(N)=O)C(C)C)(C3)NC(=O)[C@H]([C@@H](C)O)NC(=O)[C@H](Cc3ccccc3)NC(=O)[C@H](C)NC(=O)[C@H](C)NC(=O)[C@H](CN(CC(=O)O)CC(F)(F)F)NC(=O)[C@H](CC(=O)O)NC1=O)NC(=O)[C@H](CC(C)(C)C)NC(=O)[C@H](CC(=O)O)NC2=O (stereo partly drawn) [I-1758, Ac-PL3-Asp-Npg-B5-Asp-TfeGA-Ala-Ala-Phe-Thr-PyrS2-3Thi-BztA-Val-NH2]
282	CC(=O)N1CCC[C@]12CC=CCCCC1(CCCC=CCCCOC(=O)N3CC[C@@](C(=O)N[C@@H](Cc4ccccc4)C(=O)N[C@@H](Cc4csc5ccccc45)C(=O)N[C@@H](CCC(N)=O)C(N)=O)(C3)NC(=O)[C@H](CC(C)C)NC(=O)[C@H](Cc3ccccc3)NC(=O)[C@H](C)NC(=O)[C@H](C)NC(=O)[C@H](Cc3c[nH]cn3)NC(=O)[C@H](CC(=O)O)NC1=O)NC(=O)[C@H](CC(C)(C)C)NC(=O)[C@H](CC(N)=O)NC2=O (stereo partly drawn) [I-2442, Ac-PL3-Asn-Npg-B5-Asp-His-Ala-Ala-Phe-Leu-PyrS2-Phe-BztA-Gln-NH2]
141	CC(=O)N1CCC[C@]12CC=CCC1(CC=CCCCCOC(=O)N3CC[C@@](C(=O)N[C@@H](Cc4ccsc4)C(=O)N[C@@H](Cc4csc5ccccc45)C(=O)N[C@@H](CCC(N)=O)C(N)=O)(C3)NC(=O)[C@H](CC(C)C)NC(=O)[C@H](Cc3ccccc3)NC(=O)[C@H](C)NC(=O)[C@H](C)NC(=O)[C@H](CC(=O)O)NC(=O)[C@H](CC(=O)O)NC1=O)NC(=O)[C@H](CC(C)(C)C)NC(=O)[C@H](CC(=O)O)NC2=O (stereo partly drawn) [I-2157, Ac-PL3-Asp-Npg-B3-Asp-Asp-Ala-Ala-Phe-Leu-PyrS3-3Thi-BztA-Gln-NH2]
15	CC(=O)N1CCC[C@]12CC=CCCCC1(CCCC=CCCCOC(=O)N3CC[C@@](C(=O)N[C@@H](Cc4ccccc4C(F)(F)F)C(=O)N[C@@H](Cc4csc5ccccc45)C(=O)N[C@@H](CCC(=O)N(C)C)C(=O)N[C@@H](C)C(N)=O)(C3)NC(=O)[C@H](CC(C)C)NC(=O)[C@H](Cc3ccccc3)NC(=O)[C@H](C)NC(=O)[C@H](C)NC(=O)[C@H](Cc3cccc(C(=O)O)c3)NC(=O)[C@H](CC(=O)O)NC1=O)NC(=O)[C@H](CC(C)(C)C)NC(=O)[C@H](CC(=O)O)NC2=O (stereo partly drawn) [I-2466, Ac-PL3-Asp-Npg-B5-Asp-3COOHF-Ala-Ala-Phe-Leu-PyrS2-2F3MeF-BztA-Me2Gln-Ala-NH2]
